Results: patent US8563754B2, “Compounds, compositions and methods for preventing skin darkening” (priority 2010, dated 2013)
Like-named read-outs stand apart in the source and are kept apart here.

System: cultured murine melanocytes (melan-a)
Assay: Melanin assay in cultured murine melanocytes (melan-a)
Type: cell-based
Conditions: for activity at 1 µM / activity at 5 µM: Mus musculus; for activity at 1 µM: read-out: % of control melanin remaining after treatment @ 1 μM; for activity at 5 µM: read-out: % of control melanin remaining after treatment @ 5 μM; for ability to block melanin accumulation: cells treated with 1 and 5 uM test compound versus carrier (DMSO) only
Procedure: The Spectrum Collection library consisting of 2000 drug compounds or natural products represents a source for the identification of compounds useful in the present invention. The library may be screened to identify novel pigmentation inhibitors in cultured murine melanocytes (melan-a). Compounds are dissolved in dimethylsulfoxide (DMSO) to a final concentration of 10 mM. Screening is performed with cultured melanocytes in 24-well plates followed by melanin assay (see below). A minimum change of 50% in melanin formation is established as significant for a pigmentation inhibitor. DMSO may be used as a negative control and the widely used depigmenting agent, hydroquinone, may be used as a positive control on every plate. Primary screening is performed at a final concentration of 1 μM and potential candidates from the primary screening are reconfirmed in duplicate at final concentrations of 1 and 5 μM.
Melan-a cells are plated at 5×10^4 cells per well in 1 ml of culture media in 24-well plates the day before adding the library compounds. All compounds are added at the indicated final concentrations. Cells are harvested after 72 hours of incubation, and the melanin assay is performed.
For the primary and secondary screening, cells were harvested and dissolved in 200 μl of 2N NaOH in 20% DMSO at 70° C. A 180-μl aliquot of the resulting solution was measured for absorbance at 490 nm.
A series of structurally related compounds was then tested in this screen, to identify compounds that inhibit skin darkening.

[1] = 1 μM test compound, melan-a cells, 72 hours incubation, control = DMSO carrier, absorbance at 490 nm
[2] = 5 μM test compound, melan-a cells, 72 hours incubation, control = DMSO carrier, absorbance at 490 nm

Compound	activity at 1 µM [1]	activity at 5 µM [2]	further results
CC(C)=CCOc1cc2oc(=O)ccc2cc1O [Compound 1, PRENYLETIN]	79%	80%	–
C=C(C)[C@H]1COc2cc3oc(=O)ccc3cc2O1 [Compound 2, OBLIQUIN]	84%	95%	–
CC(C)C1COc2cc3oc(=O)ccc3cc2O1 (stereo not shown) [Compound 3, DIHYDRO-OBLIQUIN]	81%	81%	–
COc1cc2ccc(=O)oc2c(OC)c1OC [Compound 4, FRAXIDIN METHYL ETHER]	87%	95%	–
CC1(C)C=Cc2cc3ccc(=O)oc3cc2O1 [Compound 5, XANTHYLETIN]	99%	110%	–
CC(C)=CCOc1c2occc2cc2ccc(=O)oc12 [Compound 6, IMPERATORIN]	91%	96%	–
COc1cc2c(cc1-c1cc3cc4ccoc4cc3oc1=O)OCO2 [Compound 7, PACHYRRHIZIN]	–	–	activity at 1 µM (Melan-a, 72 h): 75%; activity at 5 µM (Melan-a, 72 h): 71%; ability to block melanin accumulation: robust dose dependent ability to block melanin accumulation
COc1ccc2ccc(=O)oc2c1 [Compound 8, HERNIARIN]	84%	81%	–
COc1ccc(-c2c(OC)c3c(OC)c4c(cc3oc2=O)OC(C)(C)C=C4)cc1 [Compound 9, ROBUSTIC ACID METHYL ETHER]	69%	16%	ability to block melanin accumulation: robust dose dependent ability to block melanin accumulation
COc1ccc(-c2c(O)c3c(OC)c4c(cc3oc2=O)OC(C)(C)C=C4)cc1 [Compound 10, ROBUSTIC ACID]	91%	93%	–
COc1c(O)cc2c(-c3ccccc3)cc(=O)oc2c1OC [Compound 11, KUHLMANNIN]	81%	84%	–
COc1cc2ccc(=O)oc2c2ccoc12 [Compound 12, SPHONDIN]	89%	101%	–
COc1c2ccoc2c(OC)c2oc(=O)ccc12 [Compound 13, ISOPIMPINELLIN]	86%	95%	–
COc1c(OC)c2occc2c2oc(=O)ccc12 [Compound 14, PIMPINELLIN]	76%	109%	–
COc1cc2occc2c2oc(=O)ccc12 [Compound 15, ISOBERGAPTENE]	86%	108%	–
COc1c(CC=C(C)C)c2c(c3oc(=O)c(-c4ccc(O)cc4)c(O)c13)C=CC(C)(C)O2 [Compound 16, SCANDENIN]	90%	64%	ability to block melanin accumulation: robust dose dependent ability to block melanin accumulation
COc1ccc2c(C)cc(=O)oc2c1 [Compound 17, HYMECROMONE METHYL ETHER]	96%	93%	–
COc1c2ccoc2cc2oc(=O)ccc12 [Compound 18, BERGAPTENE]	100%	93%	–
CCOP(=S)(OCC)Oc1ccc2c(C)c(Cl)c(=O)oc2c1 [Compound 19, COUMOPHOS]	81%	48%	ability to block melanin accumulation: robust dose dependent ability to block melanin accumulation
COc1c2occc2cc2ccc(=O)oc12 [Compound 20, METHOXSALEN, reference compound]	120%	125%	–

Compound	activity at 1 µM [1]	activity at 5 µM [2]	further results
CO[C@@H]1[C@@H](OC(N)=O)[C@@H](O)[C@H](Oc2ccc3c(O)c(NC(=O)c4ccc(O)c(CC=C(C)C)c4)c(=O)oc3c2C)OC1(C)C [Compound 21, NOVOBIOCIN SODIUM, reference compound]	90%	94%	–
Cc1cc2cc3c(C)cc(=O)oc3c(C)c2o1 [Compound 22, TRIOXSALEN, reference compound]	90%	118%	–
COc1cc(OC)c2ccc(=O)oc2c1 [Compound 23, CITROPTEN]	86%	97%	–
Cc1cc(=O)oc2cc(O)c(O)cc12 [Compound 24, 4-METHYLESCULETIN]	88%	100%	–
O=c1ccc2cc(O)c(O)cc2o1 [Compound 25, ESCULETIN]	87%	88%	–
O=c1ccc2cc(O[C@@H]3O[C@H](CO)[C@@H](O)[C@H](O)[C@H]3O)c(O)cc2o1 [Compound 26, AESCULIN]	70%	84%	–
CC1(C)Oc2ccc3ccc(=O)oc3c2CC1O (stereo not shown) [Compound 27, LOMATIN]	89%	85%	–
C/C=C(/C)C(=O)O[C@@H]1Cc2c(ccc3ccc(=O)oc23)OC1(C)C [Compound 28, SELINIDIN]	85%	82%	–
C/C=C(\C)C(=O)O[C@@H]1c2c(ccc3ccc(=O)oc23)OC(C)(C)[C@@H]1OC(C)=O [Compound 29, PTERYXIN]	93%	101%	–
CC(=O)O[C@@H]1c2c(ccc3ccc(=O)oc23)OC(C)(C)[C@@H]1OC(=O)CC(C)C [Compound 30, DIHYDROSAMIDIN]	106%	88%	–
CC(C)(O)[C@@H]1Cc2cc3ccc(=O)oc3cc2O1 [Compound 31, MARMESIN]	89%	97%	–
CC(=O)OC(C)(C)[C@@H]1Cc2cc3ccc(=O)oc3cc2O1 [Compound 32, MARMESIN ACETATE]	77%	92%	–
COc1c(C(C)C)oc2cc3oc(=O)ccc3cc12 [Compound 34, PEUCEDANIN]	83%	84%	–
COc1c2c(c(CC=C(C)C)c3oc(=O)c(-c4ccc(O)cc4)c(O)c13)OC(C)(C)C=C2 [Compound 35, LO[…]]	84%	81%	–
Cc1cc(=O)oc2c(O)c(O)ccc12 [Compound 37, 4- METHYLDAPHNETIN]	83%	88%	–
COc1cc2ccc(=O)oc2cc1O [Compound 38, SCOPOLETIN]	77%	83%	–
COc1cc2ccc(=O)oc2c(O)c1O [Compound 39, FRAXETIN]	84%	89%	–
DERRUSNIN [Compound 36]	–	–	% of control melanin remaining after treatment @ 1 μM [1]: 81 % of control; % of control melanin remaining after treatment @ 5 μM [2]: 87 % of control
FELAMIDIN [Compound 40]	–	–	% of control melanin remaining after treatment @ 1 μM [1]: 97 % of control; % of control melanin remaining after treatment @ 5 μM [2]: 88 % of control
